In ChEMBL document CHEMBL4316639, “Clavukoellians A-F, Highly Rearranged Nardosinane Sesquiterpenoids with Antiangiogenic Activity from Clavularia koellikeri” (2019):
Calls of active or inactive are those of the source. No cut-off for these calls is given here.

Assays:
HUVEC [1] = assay: Antiangiogenic activity in HUVEC assessed as inhibition of cell migration at 2.5 uM incubated for 6 to 24 hrs by wound healing assay; assay type: functional, cell-based; conditions: Homo sapiens
HUVEC [2] = assay: Antiangiogenic activity in HUVEC assessed as inhibition of cell migration incubated for 6 to 24 hrs by wound healing assay; assay type: functional, cell-based; conditions: Homo sapiens
MOLM-13 = assay: Antiproliferative activity in human MOLM13 cells assessed as inhibition of cell proliferation by Cell-titer-Glo method; assay type: functional
MV4-11 = assay: Antiproliferative activity in human MV4-11 cells assessed as inhibition of cell proliferation by Cell-titer-Glo method; assay type: functional
OE19 = assay: Antiproliferative activity in human OE19 cells assessed as inhibition of cell proliferation by Cell-titer-Glo method; assay type: functional
[3] = Antiproliferative activity in human OE21 cells assessed as inhibition of cell proliferation by Cell-titer-Glo method; assay type: functional
KYSE-520 cell line = assay: Antiproliferative activity in human KYSE520 cells assessed as inhibition of cell proliferation by Cell-titer-Glo method; assay type: functional

GI50 (MOLM-13)	GI50 (MV4-11)	Structure (SMILES)	Activity (HUVEC [1])	Activity (HUVEC [2])	GI50 (OE19)	GI50 [3]	GI50 (KYSE-520 cell line)
		CC1=C([C@@]2(C)C3=CC(=O)O[C@@H]3CC[C@@H]2C)C(=O)NC1=O	Active	Dose-dependent effect			
6.4 to 8.6 µM	6.4 to 8.6 µM	C[C@@H]1C(=O)O[C@]23C=CC(=O)[C@H]1[C@]2(C)[C@@H](C)CC[C@H]3O			6.4 to 8.6 µM	6.4 to 8.6 µM	6.4 to 8.6 µM
		C/C1=C/[C@@]2(C)C(=CCC[C@@H]2C)CC[C@H](O)[C@H]1O	Active	Dose-dependent effect			
